Values after ≈ are worked out from the molar mass of the structure shown.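 How tested: cells in 96-well plates exposed to compound for 48 hours at five concentrations. GI50 = concentration required for 50% inhibition of growth. Definition used: TGI = concentration required for complete inhibition of growth.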

Test systems include XF 498 CNS; SNB-78 CNS; M19-MEL melanoma; DMS 114 small cell lung; RXF-631 renal; MDA-N; HOP-18 NSCLC.
Holding throughout (assay): growth of human tumour cells (NCI), 48 h

For `O=C1CCCC(=O)N1CCc1c[nH]c2ccccc12`, the TGI in the experiment with XF 498 CNS, with SNB-78 CNS, in the experiment on M19-MEL melanoma, in the experiment with DMS 114 small cell lung and with RXF-631 renal was more than 100 µM throughout.

On to `NC1=C(c2nc(-c3ccccc3)cs2)C(c2ccc(Br)cc2)c2c(c3ccccc3oc2=O)O1` (stereo not drawn), for which, in the experiment with MDA-N, the GI50 was 63.7 µg/mL (≈ 120 µM) and the TGI was more than 150 µg/mL.

On to `Cc1ccc([N+](=O)[O-])cc1NC(=O)c1cccc([N+](=O)[O-])c1O`, for which the TGI in the experiment with XF 498 CNS was found to be 63.2 µM; in the experiment on SNB-78 CNS, 80.7 µM; in the experiment with M19-MEL melanoma, 56 µM; in the experiment on DMS 114 small cell lung, 43.2 µM.

For the compound `Cc1cc(NS(=O)(=O)c2ccc(NC(=O)c3ccc(Cl)c4c(Nc5ccc(S(=O)(=O)N=C(N)N)cc5)c5ccccc5nc34)cc2)no1`, the TGI is 98.8 µM in the experiment on XF 498 CNS, more than 100 µM with SNB-78 CNS, more than 100 µM in the experiment with M19-MEL melanoma and more than 100 µM in the experiment with DMS 114 small cell lung.

In the case of `O=C1C2C=CC(C2)C(c2ccc(O)cc2)N1O` (stereo not drawn), the TGI with XF 498 CNS, with SNB-78 CNS and with M19-MEL melanoma was more than 100 µM throughout.

For `COC(=O)NN=C1C(C)(C)C(=O)C1(C)C`, the TGI in the experiment with XF 498 CNS, in the experiment on SNB-78 CNS and with RXF-631 renal was more than 100 µM each time.

Take `CN(C)CCCN1c2ccccc2C(C)(C)c2ccccc21`: in the experiment with MDA-N, the TGI was 27.6 µM.

Turning to `COC(=O)[C@]12CC=C3O[C@@H]4OC5(CCCCC5)O[C@@H]4C3[C@@H]1C(=O)CCC2=O` (stereo partly drawn), the TGI with XF 498 CNS, in the experiment on SNB-78 CNS, with HOP-18 NSCLC, with DMS 114 small cell lung and in the experiment on RXF-631 renal was more than 100 µM in each case.

As for `O=C(O)CCSC(=O)Nc1ccccc1F`, the TGI with SNB-78 CNS and in the experiment on DMS 114 small cell lung was more than 100 µM throughout.

Turning to `Cc1cc(Cc2cc(C)cc(C(C)(C)C)c2O)c(O)c(Cc2cc(C)cc(C(C)(C)C)c2O)c1`, the TGI in the experiment on MDA-N was determined as 11.9 µM.

In the case of `O=C(c1ccccc1)[C@@H]1C[C@H](Sc2ccccc2)c2cc(Cl)ccc2N1`, the TGI with XF 498 CNS was 46.9 µM; in the experiment with SNB-78 CNS, more than 100 µM; in the experiment with M19-MEL melanoma, more than 100 µM; in the experiment on HOP-18 NSCLC it was more than 100 µM; in the experiment on DMS 114 small cell lung, 82.6 µM; in the experiment on RXF-631 renal, 83.1 µM.

For `C=C1C(=O)O[C@H]2[C@H](OC(C)=O)[C@@H](C)CCC/C(C)=C/CC[C@@]3(C)O[C@@H]3C[C@@H]12`, the TGI with MDA-N came to 10.6 µM.

Regarding `COc1ccc(CC(=O)NCCc2ccc(OC)c(OC)c2)cc1Br`, the TGI in the experiment with XF 498 CNS and in the experiment with DMS 114 small cell lung was more than 100 µM in each case.

On to `Nc1c([N+](=O)[O-])cc2c3c(cccc13)CC2`, for which, in the experiment with MDA-N, the TGI was more than 100 µM.

With `COc1ccc(S(=O)(=O)N/N=C/c2cc(I)cc([N+](=O)[O-])c2O)cc1OC`, the TGI is 51.1 µM with XF 498 CNS; 65.1 µM with SNB-78 CNS; 99.2 µM in the experiment with M19-MEL melanoma; 68.5 µM with HOP-18 NSCLC; more than 100 µM in the experiment with RXF-631 renal.

For the compound `Cc1ccc(NC(=O)C(=O)CC(=O)c2c(C)n([O-])c3ccccc3[n+]2=O)cc1`, the TGI with SNB-78 CNS is more than 100 µM; in the experiment on M19-MEL melanoma, 36.1 µM; in the experiment with HOP-18 NSCLC, more than 100 µM; in the experiment with DMS 114 small cell lung, 38.5 µM; in the experiment with RXF-631 renal it was more than 100 µM.

For `CN(C)C=[N+]=[N-]`, the TGI with XF 498 CNS, in the experiment on SNB-78 CNS, in the experiment on M19-MEL melanoma, with HOP-18 NSCLC and in the experiment on DMS 114 small cell lung was more than 100 µM in each case.

Turning to `c1ccc2cc3[s+]snc3cc2c1`, the TGI in the experiment with XF 498 CNS, with SNB-78 CNS, in the experiment on M19-MEL melanoma, with HOP-18 NSCLC and in the experiment with RXF-631 renal was more than 100 µM in each case.

`CCOC(=O)/C(=C\c1cccs1)P(=O)(OCC)OCC`: the TGI in the experiment with SNB-78 CNS is more than 100 µM; in the experiment on M19-MEL melanoma, 45 µM; in the experiment on HOP-18 NSCLC, more than 100 µM; in the experiment with DMS 114 small cell lung, 51.7 µM; in the experiment with RXF-631 renal it was more than 100 µM.

`CN1CC[C@]2(C)c3cc(O)ccc3CC3CCCC1C32C` (stereo partly drawn): the TGI with XF 498 CNS, with SNB-78 CNS, in the experiment with M19-MEL melanoma, in the experiment with HOP-18 NSCLC, in the experiment with DMS 114 small cell lung and in the experiment with RXF-631 renal was more than 100 µM in each case.

In the case of `COc1ccccc1C1c2cc3c(cc2OC(O)(CO)C1C(=O)O)OCO3` (stereo not drawn) (tested in a mixture with another compound), the TGI with SNB-78 CNS, with M19-MEL melanoma, in the experiment with HOP-18 NSCLC and with DMS 114 small cell lung was more than 100 µM each time.

With `C[C@]12CCC(=O)C(O)=C1CC[C@@H]1C2CC[C@]2(C)Nc3c(cnn3-c3ccccc3)CC12` (stereo partly drawn), the TGI with XF 498 CNS, in the experiment with SNB-78 CNS, in the experiment with M19-MEL melanoma and in the experiment on RXF-631 renal was more than 100 µM in each case.

Regarding `CC(=O)OCC(=O)[C@@]12OC(C)(C)O[C@@H]1C[C@H]1[C@@H]3CC=C4C[C@@H](O)CC[C@]4(C)[C@H]3CC[C@@]12C`, the TGI in the experiment with MDA-N was more than 100 µM.

As for `O=C1C2C(c3ccccc3)NC(c3ccccc3)C1C(c1ccccc1)NC2c1ccccc1` (stereo not drawn), in the experiment with MDA-N, the TGI is more than 100 µM.

As to `O=c1nc(NC(c2ccccc2)(c2ccccc2)c2ccccc2)ccn1CCNCCn1ccc(NC(c2ccccc2)(c2ccccc2)c2ccccc2)nc1=O`, the TGI in the experiment on XF 498 CNS came to 31.9 µM; in the experiment with M19-MEL melanoma, 21 µM; in the experiment on HOP-18 NSCLC, 43.8 µM; in the experiment on DMS 114 small cell lung, 13.5 µM.

Compound `COc1ccc(C(=O)/C=C/c2ccc3c(c2)OCO3)c(OCc2ccccc2)c1` returned a TGI in the experiment with MDA-N of more than 100 µM.

Turning to `O=C(O)C1C(C(=O)O)C23CC2(C(=O)O)C2(C(=O)O)CCC3=C3CCCC312` (stereo not drawn), the TGI in the experiment with MDA-N was 89.2 µM.

`O=C(O)CNS(=O)(=O)c1ccc(NC(=O)CI)cc1`: the TGI was 29.5 µM with XF 498 CNS, more than 100 µM with M19-MEL melanoma, more than 100 µM in the experiment on HOP-18 NSCLC and 32.5 µM with RXF-631 renal.

`COc1cc(C(O)C(=O)c2nc3ccc([N+](=O)[O-])cc3[nH]c2=O)ccc1O` (stereo not drawn): the TGI with XF 498 CNS, with SNB-78 CNS, in the experiment with M19-MEL melanoma and in the experiment on DMS 114 small cell lung was more than 100 µM in each case.

Take `CCN(CC)CCn1c2ccccc2c(=O)c2c(O)ccc(O)c21`: the TGI in the experiment with XF 498 CNS was 44.2 µM; with SNB-78 CNS, more than 60.2 µM; in the experiment on MDA-N, 34.4 µM; in the experiment on DMS 114 small cell lung, 41 µM; in the experiment with RXF-631 renal, more than 66.8 µM.

With `O=C(O)CCC(NC(=O)c1ccccc1)C(=O)O` (stereo not drawn), the TGI in the experiment with XF 498 CNS, in the experiment with SNB-78 CNS, in the experiment with HOP-18 NSCLC, with DMS 114 small cell lung and in the experiment with RXF-631 renal was more than 100 µM throughout.

Consider `C[N+]1(C)C/C(=C\c2ccccc2)C(=O)/C(=C/c2ccccc2)C1`, for which the TGI in the experiment with XF 498 CNS, in the experiment on SNB-78 CNS, in the experiment with M19-MEL melanoma, with HOP-18 NSCLC, in the experiment with DMS 114 small cell lung and with RXF-631 renal was more than 100 µM each time.

Take `Cc1[nH]c(=O)n2c(C)nnc2c1C(=O)Nc1cc(Cl)cc(Cl)c1`: the TGI in the experiment with SNB-78 CNS is 69.6 µM; in the experiment with M19-MEL melanoma, 91.9 µM.

Turning to `CN1C(=O)C(CC(=O)O)NC1=S` (stereo not drawn), in the experiment on MDA-N, the TGI is more than 100 µM.

For the compound `C=C1C(=O)OC2C=C(CCC(C)=O)C(C)C(OC(C)=O)CC12` (stereo not drawn), the TGI in the experiment on XF 498 CNS came to 26.1 µM; in the experiment on SNB-78 CNS it was 27.4 µM; in the experiment with M19-MEL melanoma, 64.7 µM; in the experiment with HOP-18 NSCLC, 24.1 µM.

Regarding `Cc1c(C(=O)CC(=O)C(=O)Nc2ccc(Cl)cc2)[n+](=O)c2ccccc2n1[O-]`, the TGI in the experiment on XF 498 CNS, in the experiment with SNB-78 CNS, in the experiment on M19-MEL melanoma, in the experiment with HOP-18 NSCLC and with DMS 114 small cell lung was more than 100 µM each time.

In the case of `CC(C)(CN1CCCCC1)C(=O)/C=C/c1ccc(Cl)cc1`, the TGI was determined as 11.8 µM in the experiment on SNB-78 CNS; 23.4 µM in the experiment on M19-MEL melanoma; 23.1 µM in the experiment with HOP-18 NSCLC; 15.4 µM with DMS 114 small cell lung; 29.9 µM in the experiment with RXF-631 renal.

Consider `Fc1ccccc1C1SCc2nc3ccccc3n21` (stereo not drawn), for which the TGI in the experiment on SNB-78 CNS, with M19-MEL melanoma, in the experiment on DMS 114 small cell lung and in the experiment on RXF-631 renal was more than 100 µM throughout.

Consider `CC(C)c1c(O)ccc2c1CCC1C(C)(C)CCCC21C` (stereo not drawn), for which, in the experiment on MDA-N, the TGI came to 32.3 µM.

The values are drawn from PubChem BioAssay (NCI).
